This passage reports pest or weed control results from patent US20230329236A1, “HERBICIDAL PYRIMIDINE DERIVATIVES” (MoA Technology Limited, priority 2020, published 2023).

As a reminder, the pest or weed control is the degree to which the test organism was suppressed or injured, in per cent.

The first assay has as its system Echinochloa crus-gaffi (ECHCG). Put plainly: Post-emergence glasshouse test, visual injury, ECHCG. The assay is classed as in vivo, Echinochloa crus-galli. The conditions noted are these: 336 h, Table 3, post-emergence, 62 g/ha, 14±1 days post application. Put shortly:
(§1)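 Plants were grown in sandy loam and sprayed post-emergence at BBCH 12-14. The spray was derived from acetone/water (50:50) containing 0.5% Tween 20, dosed as g/ha active ingredient. Percent visual damage versus untreated plants was scored after 14±1 days under controlled glasshouse conditions.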
In the case of `Cc1cc(-c2cnc(NCc3ccccc3Cl)nc2C(C)C)on1` [Compound 101], the pest or weed control at 62 g/ha amounted to 70%.

Staying with this assay, now noted: 336 h, Table 3, post-emergence, 125 g/ha, 14±1 days post application.
Compound `Cc1cc(-c2cnc(NCc3ccccc3F)nc2C(F)(F)F)on1` [Compound 113] registered a pest or weed control at 125 g/ha of 20%.

In turn, `Cc1cc(-c2cnc(NCC3CCCC3)nc2C(C)C)on1` [Compound 107] registered a pest or weed control at 125 g/ha of 50%.

On to `Cc1cc(-c2cnc(NC3CC3)nc2C(F)(F)F)on1` [Compound 114], for which the pest or weed control at 125 g/ha turned out to be 20%.

As for `Cc1cc(-c2cnc(NC3CCCCC3)nc2C(C)C)on1` [Compound 7], the pest or weed control at 125 g/ha worked out at 80%.

`Cc1cc(-c2cnc(NC(C)(C)C)nc2C(C)C)on1` [Compound 5]: the pest or weed control at 125 g/ha is 70%.

`Cc1cc(-c2cnc(N3CCC(C(N)=O)CC3)nc2-c2ccc(C)s2)on1` [Compound 88] came in with a pest or weed control at 125 g/ha of 20%.

`Cc1cc(-c2cnc(NC3CCCC3)nc2C2CCC2)on1` [Compound 104] gave a pest or weed control at 125 g/ha of 0%.

With `Cc1cc(-c2cnc(N3CCN(c4ncccn4)CC3)nc2-c2ccc(C)o2)on1` [Compound 89], the pest or weed control at 125 g/ha was found to be 0%.

`Cc1cc(-c2cnc(N(C)C3CCCC3)nc2C(F)(F)F)on1` [Compound 112] returned a pest or weed control at 125 g/ha of 0%.

The compound `Cc1cc(-c2cnc(N3CCSCC3)nc2-c2ccc(C)o2)on1` [Compound 90] showed a pest or weed control at 125 g/ha of 30%.

The same assay, now with this note: 336 h, Table 3, post-emergence, 250 g/ha, 14±1 days post application.
Regarding `CCN(CC)c1ncc(-c2cc(C)no2)c(C(C)C)n1` [Compound 10], the pest or weed control at 250 g/ha was 30%.

The compound `Cc1cc(-c2cnc(NC3CCCCC3)nc2C(C)C)on1` [Compound 7] gave a pest or weed control at 250 g/ha of 100%.

The assay is the same for the next values; noted with them: 336 h, Table 3, post-emergence, 500 g/ha, 14±1 days post application.
As for `Cc1cc(-c2cnc(NC3CCC3)nc2C(C)C)on1` [Compound 14], the pest or weed control at 500 g/ha was 100%.

Another assay concerns Amaranthus retroflexus (AMARE). The experiment in a line: Post-emergence glasshouse test, visual injury, AMARE. In kind it is in vivo. The conditions noted are these: 336 h, Table 3, post-emergence, 62 g/ha, 14±1 days post application. Put shortly:
as §1
With `Cc1cc(-c2cnc(NCc3ccccc3Cl)nc2C(C)C)on1` [Compound 101], the pest or weed control at 62 g/ha is 50%.

Staying with this assay, now noted: 336 h, Table 3, post-emergence, 125 g/ha, 14±1 days post application.
Compound `Cc1cc(-c2cnc(NCc3ccccc3F)nc2C(F)(F)F)on1` [Compound 113] displayed a pest or weed control at 125 g/ha of 30%.

Compound `Cc1cc(-c2cnc(NCC3CCCC3)nc2C(C)C)on1` [Compound 107] registered a pest or weed control at 125 g/ha of 30%.

Turning to `Cc1cc(-c2cnc(NC3CC3)nc2C(F)(F)F)on1` [Compound 114], the pest or weed control at 125 g/ha came to 0%.

The compound `Cc1cc(-c2cnc(NC3CCCCC3)nc2C(C)C)on1` [Compound 7] showed a pest or weed control at 125 g/ha of 80%.

`Cc1cc(-c2cnc(NC(C)(C)C)nc2C(C)C)on1` [Compound 5]: the pest or weed control at 125 g/ha came to 100%.

In the case of `Cc1cc(-c2cnc(N3CCC(C(N)=O)CC3)nc2-c2ccc(C)s2)on1` [Compound 88], the pest or weed control at 125 g/ha worked out at 20%.

Consider `Cc1cc(-c2cnc(NC3CCCC3)nc2C2CCC2)on1` [Compound 104], for which the pest or weed control at 125 g/ha was determined as 40%.

With `Cc1cc(-c2cnc(N3CCN(c4ncccn4)CC3)nc2-c2ccc(C)o2)on1` [Compound 89], the pest or weed control at 125 g/ha was 0%.

On to `Cc1cc(-c2cnc(N(C)C3CCCC3)nc2C(F)(F)F)on1` [Compound 112], for which the pest or weed control at 125 g/ha amounted to 20%.

The compound `Cc1cc(-c2cnc(N3CCSCC3)nc2-c2ccc(C)o2)on1` [Compound 90] displayed a pest or weed control at 125 g/ha of 30%.

Staying with this assay, now noted: 336 h, Table 3, post-emergence, 250 g/ha, 14±1 days post application.
`CCN(CC)c1ncc(-c2cc(C)no2)c(C(C)C)n1` [Compound 10] gave a pest or weed control at 250 g/ha of 0%.

`Cc1cc(-c2cnc(NC3CCCCC3)nc2C(C)C)on1` [Compound 7] came in with a pest or weed control at 250 g/ha of 100%.

Still in this assay, the particulars now being: 336 h, Table 3, post-emergence, 500 g/ha, 14±1 days post application.
`Cc1cc(-c2cnc(NC3CCC3)nc2C(C)C)on1` [Compound 14] gave a pest or weed control at 500 g/ha of 100%.

For a further assay, the system named is Veronica persica (VERPE). The experiment in a line: Post-emergence glasshouse test, visual injury, VERPE. The assay is classed as in vivo. The conditions noted are these: 336 h, Table 3, post-emergence, 62 g/ha, 14±1 days post application. Put shortly: as §1
`Cc1cc(-c2cnc(NCc3ccccc3Cl)nc2C(C)C)on1` [Compound 101] returned a pest or weed control at 62 g/ha of 40%.

Staying with this assay, now noted: 336 h, Table 3, post-emergence, 125 g/ha, 14±1 days post application.
`Cc1cc(-c2cnc(NCc3ccccc3F)nc2C(F)(F)F)on1` [Compound 113]: the pest or weed control at 125 g/ha was 0%.

For the compound `Cc1cc(-c2cnc(NCC3CCCC3)nc2C(C)C)on1` [Compound 107], the pest or weed control at 125 g/ha is 50%.

For `Cc1cc(-c2cnc(NC3CC3)nc2C(F)(F)F)on1` [Compound 114], the pest or weed control at 125 g/ha is 70%.

With `Cc1cc(-c2cnc(NC3CCCCC3)nc2C(C)C)on1` [Compound 7], the pest or weed control at 125 g/ha was 60%.

With `Cc1cc(-c2cnc(NC(C)(C)C)nc2C(C)C)on1` [Compound 5], the pest or weed control at 125 g/ha is 100%.

In turn, `Cc1cc(-c2cnc(N3CCC(C(N)=O)CC3)nc2-c2ccc(C)s2)on1` [Compound 88] registered a pest or weed control at 125 g/ha of 0%.

`Cc1cc(-c2cnc(NC3CCCC3)nc2C2CCC2)on1` [Compound 104]: the pest or weed control at 125 g/ha is 60%.

Consider `Cc1cc(-c2cnc(N3CCN(c4ncccn4)CC3)nc2-c2ccc(C)o2)on1` [Compound 89], for which the pest or weed control at 125 g/ha worked out at 5%.

Consider `Cc1cc(-c2cnc(N(C)C3CCCC3)nc2C(F)(F)F)on1` [Compound 112], for which the pest or weed control at 125 g/ha was found to be 0%.

As for `Cc1cc(-c2cnc(N3CCSCC3)nc2-c2ccc(C)o2)on1` [Compound 90], the pest or weed control at 125 g/ha came out at 40%.

The assay is the same for the next values; noted with them: 336 h, Table 3, post-emergence, 250 g/ha, 14±1 days post application.
With `CCN(CC)c1ncc(-c2cc(C)no2)c(C(C)C)n1` [Compound 10], the pest or weed control at 250 g/ha came to 0%.

The compound `Cc1cc(-c2cnc(NC3CCCCC3)nc2C(C)C)on1` [Compound 7] gave a pest or weed control at 250 g/ha of 100%.

The same assay, now with this note: 336 h, Table 3, post-emergence, 500 g/ha, 14±1 days post application.
For the compound `Cc1cc(-c2cnc(NC3CCC3)nc2C(C)C)on1` [Compound 14], the pest or weed control at 500 g/ha came out at 100%.

The test system of a further assay is Lolium multiflorum (LOLMU). Put plainly: Post-emergence glasshouse test, visual injury, LOLMU. The assay is classed as in vivo. The conditions noted are these: 336 h, Table 3, post-emergence, 62 g/ha, 14±1 days post application. Put shortly:
as §1
For the compound `Cc1cc(-c2cnc(NCc3ccccc3Cl)nc2C(C)C)on1` [Compound 101], the pest or weed control at 62 g/ha was found to be 0%.

Staying with this assay, now noted: 336 h, Table 3, post-emergence, 125 g/ha, 14±1 days post application.
As to `Cc1cc(-c2cnc(NCc3ccccc3F)nc2C(F)(F)F)on1` [Compound 113], the pest or weed control at 125 g/ha is 0%.

As to `Cc1cc(-c2cnc(NCC3CCCC3)nc2C(C)C)on1` [Compound 107], the pest or weed control at 125 g/ha was 0%.

In the case of `Cc1cc(-c2cnc(NC3CC3)nc2C(F)(F)F)on1` [Compound 114], the pest or weed control at 125 g/ha amounted to 0%.

`Cc1cc(-c2cnc(NC3CCCCC3)nc2C(C)C)on1` [Compound 7]: the pest or weed control at 125 g/ha turned out to be 20%.

As for `Cc1cc(-c2cnc(NC(C)(C)C)nc2C(C)C)on1` [Compound 5], the pest or weed control at 125 g/ha came out at 60%.

For the compound `Cc1cc(-c2cnc(N3CCC(C(N)=O)CC3)nc2-c2ccc(C)s2)on1` [Compound 88], the pest or weed control at 125 g/ha was 0%.

Compound `Cc1cc(-c2cnc(NC3CCCC3)nc2C2CCC2)on1` [Compound 104] yielded a pest or weed control at 125 g/ha of 0%.

In the case of `Cc1cc(-c2cnc(N3CCN(c4ncccn4)CC3)nc2-c2ccc(C)o2)on1` [Compound 89], the pest or weed control at 125 g/ha was 5%.

As to `Cc1cc(-c2cnc(N(C)C3CCCC3)nc2C(F)(F)F)on1` [Compound 112], the pest or weed control at 125 g/ha was determined as 20%.

For `Cc1cc(-c2cnc(N3CCSCC3)nc2-c2ccc(C)o2)on1` [Compound 90], the pest or weed control at 125 g/ha worked out at 0%.

Staying with this assay, now noted: 336 h, Table 3, post-emergence, 250 g/ha, 14±1 days post application.
Compound `CCN(CC)c1ncc(-c2cc(C)no2)c(C(C)C)n1` [Compound 10] registered a pest or weed control at 250 g/ha of 0%.

`Cc1cc(-c2cnc(NC3CCCCC3)nc2C(C)C)on1` [Compound 7] yielded a pest or weed control at 250 g/ha of 20%.

Staying with this assay, now noted: 336 h, Table 3, post-emergence, 500 g/ha, 14±1 days post application.
`Cc1cc(-c2cnc(NC3CCC3)nc2C(C)C)on1` [Compound 14] came in with a pest or weed control at 500 g/ha of 50%.
